Reference: patent publication US11225503B2, “Crystobactamides” (HELMHOLTZ-ZENTRUM FÜR INFEKTIONSFORSCHUNG GMBH, priority 2013, dated 2022)
≈ marks a conversion by molar mass, not a printed value. Bridge positions count the residues as written; N and C are the ends. Square brackets hold non-standard residues; d marks the D form. Peptide text beside a SMILES is read from it. * marks the point of attachment. Ileψ(thiazoline)Cys = CC[C@H](C)[C@H](N)C1=N[C@H](C(=O)*)CS1; dOrn = NCCC[C@@H](N)C(=O)O

Columns and labels:
Type in all cases: cell-based
[1] = system: Cystobacter velatus MCy8071; assay: Antibiotic resistance of the producer strain; conditions: final concentration of all antibiotics 50 μg ml^−1
Method: MCy8071 is resistant against the following antibiotics: ampicillin, gentamycin, hygromycin, polymycin, bacitracin, spectinomycin, neomycin, and fusidinic acid. Weak growth is possible with cephalosporin and kasugamycin and no growth is possible with thiostrepton, trimethoprin, kanamycin, and oxytetracycline (final concentration of all antibiotics was adjusted to 50 μg ml^−1).

[2] = system: Pseudomonas aeruginosa PA14; assay: Susceptibility testing, MIC microdilution
Method: (§1) Bacterial wildtype strains used in susceptibility assays were either part of our strain collection or purchased from the German Collection of Microorganisms and Cell Cultures (DSMZ) or from the American Type Culture Collection (ATCC). E. coli strain WT^[6] and E. coli mutants were kindly provided by Prof. Dr. P. Heisig, Pharmaceutical Biology and Microbiology, University of Hamburg.
(§2) MIC values were determined in microdilution assays. Overnight cultures were diluted in the appropriate growth medium to achieve an inoculum of 10^4-10^6 cfu/mL. Yeasts were grown in Myc medium (1% phytone peptone, 1% glucose, 50 mM HEPES, pH 7.0), S. pneumonia and E. faecalis in tryptic soy broth (TSB: 1.7% peptone casein, 0.3% peptone soymeal, 0.25% glucose, 0.5% NaCl, 0.25% K2HPO4; pH 7.3); M. smegmatis in Middlebrook 7H9 medium supplemented with 10% Middlebrook ADC enrichment and 2 ml/l glycerol). All other listed bacteria were grown in Müller-Hinton broth (0.2% beef infusion solids, 1.75% casein hydrolysate, 0.15% starch, pH 7.4). Cystobactamides and reference drugs were added directly to the cultures in sterile 96-well plates as duplicates and serial dilutions were prepared. Microorganisms were grown on a microplate shaker (750 rpm, 30-37° C., 18-48 h), except S. pneumonia, which was grown at non-shaking conditions (37° C., 5% CO2, 18 h). Growth inhibition was assessed by visual inspection and the MIC was defined as the lowest concentration of compound that inhibited visible growth.

[3] = system: Escherichia coli DSM-26863 (tolC3); assay: Susceptibility testing, MIC microdilution; conditions: Escherichia coli DSM-26863 (tolC3)
Method: as §1, §2

[4] = system: Escherichia coli DSM-1116; assay: Susceptibility testing, MIC microdilution; conditions: Escherichia coli DSM-1116
Method: as §1, §2

[5] = system: several microorganisms and cell lines; assay: Biological evaluation, summary statements over the MIC and cytotoxicity tests; conditions: A. baumannii and P. aeruginosa
Method: (§3) Cells were seeded at 6×10^3 cells per well of 96-well plates (Corning CellBind®) in complete medium (180 μl) and directly treated with cystobactamides dissolved in methanol in a serial dilution. Compound were tested in duplicate for 5 d, as well as the internal solvent control. After 5 d incubation, 5 mg/ml MTT in PBS (20 μL) was added per well and it was further incubated for 2 h at 37° C.[7] The medium was then discarded and cells were washed with PBS (100 μl) before adding 2-propanol/10N HCl (250:1, v/v; 100 μl) in order to dissolve formazan granules. The absorbance at 570 nm was measured using a microplate reader (EL808, Bio-Tek Instruments Inc.).
as §2

[6] = system: Chinese hamster ovary CHO-K1 cells; assay: in vitro
Method: Human HCT-116 colon carcinoma cells (CCL-247) were obtained from the American Type Culture Collection (ATCC) and Chinese hamster ovary CHO-K1 cells (ACC-110) were obtained from the German Collection of Microorganisms and Cell Cultures (DSMZ). Both cell lines were cultured under the conditions recommended by the respective depositor. Primary HUVEC (human umbilical vein endothelial cells; single donor) were purchased from PromoCell (Heidelberg, Germany) and cultured in Endothelial Cell Growth Medium (PromoCell) containing the following supplements: 2% FCS, 0.4% ECGS, 0.1 ng/ml EGF, 1 ng/ml bFGF, 90 μg/ml heparin, 1 μg/ml hydrocortisone.
as §3

[7] = system: E. coli strain WT III (marR Δ74 bp); assay: Susceptibility of mutant E. coli strains, MIC; conditions: for MIC, in words: E. coli WT III; for MIC: Escherichia coli WTIII [marRΔ74bp]
Method: as §1, §2

With `CC[C@H](C)[C@H](N)C1=N[C@H](C(=O)N[C@@H](CC(C)C)C(=O)N[C@H](CCC(=O)O)C(=O)N[C@H](C(=O)N[C@H]2CCCCNC(=O)[C@H](CC(N)=O)NC(=O)[C@@H](CC(=O)O)NC(=O)[C@H](Cc3cnc[nH]3)NC(=O)[C@@H](Cc3ccccc3)NC(=O)[C@H]([C@@H](C)CC)NC(=O)[C@@H](CCCN)NC2=O)[C@@H](C)CC)CS1` [bacitracin] ({Ileψ(thiazoline)Cys}-L[dE]IK[dOrn]I[dF]H[dD]N; lactam 4-C) as the molecule, how does the “growth of strain MCy8071 in presence of the antibiotic” value (shortened to “growth of strain MCy8071”) [1] read?
The value was “resistant”.

For `COc1cc(C(=O)O)ccc1NC(=O)c1ccc(NC(=O)c2ccc(NC(=O)C(NC(=O)c3ccc(NC(=O)c4ccc([N+](=O)[O-])cc4)cc3)C(OC)C(N)=O)cc2)c(OC(C)C)c1O` (stereo not shown) [cystobactamide G], which MIC [2] is on record?
Its MIC is 7.1 µg/mL (≈ 7.96 µM).

What about the MIC [3] of the same molecule?
The MIC was 0.9 µg/mL (≈ 1.01 µM).

What about the MIC [4] of the same molecule?
The MIC was 0.9 µg/mL (≈ 1.01 µM).

And the “inhibition of pathogenic Gram-negative strains A. baumannii and P. aeruginosa (MIC range)” value [5]?
Its value is “low μg/ml range”.

And the GI50 [6]?
The GI50 was 37 to 111 µM.

What about the “MIC, in words” value [7] of the same molecule?
Its value is “in the μg/ml range”.

And the MIC [7]?
The MIC was 3.6 µg/mL (≈ 4.04 µM).

With neomycin as the molecule, how does the “growth of strain MCy8071” value [1] read?
The value was “resistant”.

For gentamycin, which “growth of strain MCy8071” value [1] is on record?
The value was “resistant”.

How did the “growth of strain MCy8071” value [1] turn out when `C=C(NC(=O)C(=C)NC(=O)c1csc(C2=N[C@@H]3c4csc(n4)[C@H]4NC(=O)c5csc(n5)[C@H]([C@](C)(O)[C@@H](C)O)NC(=O)[C@H]5CSC(=N5)/C(=C/C)NC(=O)[C@H]([C@@H](C)O)NC(=O)c5csc(n5)[C@]3(CC2)NC(=O)[C@H](C)NC(=O)C(=C)NC(=O)[C@H](C)NC(=O)[C@H]([C@@H](C)CC)N[C@@H]2C=Cc3c([C@H](C)O)cc(nc3[C@H]2O)C(=O)O[C@@H]4C)n1)C(N)=O` [thiostrepton] was run?
The value was “no growth”.

Which MIC [2] does the source give for `COC(C(N)=O)C(NC(=O)c1ccc(NC(=O)c2ccc([N+](=O)[O-])cc2)cc1)C(=O)Nc1ccc(C(=O)Nc2ccc(C(=O)Nc3ccc(C(=O)O)cc3)c(O)c2OC(C)C)cc1` (stereo not shown) [cystobactamide F] here?
The MIC was 3.4 µg/mL (≈ 3.95 µM).

And the MIC [3]?
The MIC was 0.4 µg/mL (≈ 0.464 µM).

And the MIC [4]?
Its MIC is 0.4 µg/mL (≈ 0.464 µM).

And the “inhibition of pathogenic Gram-negative strains A. baumannii and P. aeruginosa (MIC range)” value [5]?
The value was “low μg/ml range”.

And the GI50 [6]?
The GI50 was > 111 µM.

What about the “MIC, in words” value [7] of the same molecule?
The value was “in the μg/ml range”.

And the “factor of MIC increase” value ([7]; E. coli WT III compared to wildtype E. coli DSM-1116)?
Its value is 2.

What about the MIC [7] of the same molecule?
The MIC was 0.9 µg/mL (≈ 1.04 µM).
